Laboratory results: US8921362B2, “6,7-dialkoxy quinazoline derivatives and methods of treating drug resistant and other tumors” (Natco Pharma Limited, priority 2008, dated 2014)

Legend:
Assay in all cases: KinomeScan
Format in all cases: binding
Conditions in all cases: read-out: % Ctrl @ 10000 nM
[1] = target: T1, AAK1 (Homo sapiens, UniProt Q2M2I8)
T1 construct: host or cells: E. coli (BL21-derived), T7 phage lysate
How it was run: (§1)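 Competition binding of kinase-tagged T7 phage (BL21-derived E. coli lysates) to immobilized ligand on biotin-blocked beads; test compound diluted from 40× DMSO stocks, 2.5% DMSO in no-compound controls. Bound phage eluted and titer quantified by qPCR.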

[2] = target: T2, ABL1(H396P) (Homo sapiens, UniProt P00519, H396P)
T2 construct: host or cells: E. coli (BL21-derived), T7 phage lysate
How it was run: as §1

[3] = target: T3, ALK (Homo sapiens, UniProt Q9UM73)
T3 construct: host or cells: E. coli (BL21-derived), T7 phage lysate
How it was run: as §1

[4] = target: T4, BMX (Homo sapiens, UniProt P51813)
T4 construct: host or cells: E. coli host derived from BL21
How it was run: as §1

[5] = target: T5, BRSK2 (Homo sapiens, UniProt Q8IWQ3)
T5 construct: host or cells: E. coli host derived from BL21
How it was run: as §1

[6] = target: T6, CAMK1 (Homo sapiens, UniProt Q14012)
T6 construct: host or cells: E. coli host derived from BL21
How it was run: as §1

[7] = target: T7, CAMK2A (Homo sapiens, UniProt Q9UQM7)
T7 construct: host or cells: E. coli host derived from BL21
How it was run: as §1

[8] = target: T8, CDK2 (Homo sapiens, UniProt P24941)
T8 construct: host or cells: T7 phage in E. coli host derived from BL21
How it was run: as §1

[9] = target: T9, CIT (Homo sapiens, UniProt O14578)
T9 construct: host or cells: T7 phage in E. coli host derived from BL21
How it was run: as §1

[10] = target: T10, DCAMKL2 (Homo sapiens, UniProt Q8N568)
T10 construct: purchased Ambit Biosciences Corp (KinomeScan); host or cells: T7 phage in E. coli host derived from BL21
How it was run: as §1

[11] = target: T11, DRAK1 (Homo sapiens, UniProt Q9UEE5)
T11 construct: purchased Ambit Biosciences Corp (KinomeScan); host or cells: T7 phage in E. coli host derived from BL21
How it was run: as §1

[12] = target: T12, ERK4 (Homo sapiens, UniProt P31152)
T12 construct: purchased Ambit Biosciences Corp; host or cells: T7 phage in E. coli host derived from BL21
How it was run: as §1

[13] = target: T13, FGFR2 (Homo sapiens, UniProt P21802)
T13 construct: host or cells: T7 phage in E. coli host derived from BL21
How it was run: as §1

[14] = target: T14, FLT1 (Homo sapiens, UniProt P17948)
T14 construct: host or cells: T7 phage in E. coli host derived from BL21
How it was run: as §1

[15] = target: T15, JAK1(JH1domain-catalytic) (Homo sapiens, UniProt P23458)
T15 construct: JAK1(JH1domain-catalytic); host or cells: T7 phage grown in E. coli host derived from BL21
How it was run: as §1

[16] = target: T16, LCK (Homo sapiens, UniProt P06239)
T16 construct: host or cells: T7 phage grown in E. coli host derived from BL21
How it was run: as §1

[17] = target: T17, LIMK2 (Homo sapiens, UniProt P53671)
T17 construct: host or cells: T7 phage grown in E. coli host derived from BL21
How it was run: as §1

[18] = target: T18, LKB1 (Homo sapiens, UniProt Q15831)
T18 construct: host or cells: E. coli host derived from the BL21 strain, infected with T7 phage
How it was run: as §1

[19] = target: T19, MAP4K3 (Homo sapiens, UniProt Q8IVH8)
T19 construct: host or cells: E. coli host derived from the BL21 strain, infected with T7 phage
How it was run: as §1

[20] = target: T20, MAPKAPK5 (Homo sapiens, UniProt Q8IW41)
T20 construct: host or cells: E. coli host derived from the BL21 strain, infected with T7 phage
How it was run: as §1

[21] = target: T21, MARK2 (Homo sapiens, UniProt Q7KZI7)
T21 construct: host or cells: E. coli host derived from the BL21 strain, infected with T7 phage
How it was run: as §1

[22] = target: T22, NEK1 (Homo sapiens, UniProt Q96PY6)
T22 construct: host or cells: T7 phage grown in E. coli host derived from BL21
How it was run: as §1

[23] = target: T23, NEK9 (Homo sapiens, UniProt Q8TD19)
T23 construct: host or cells: T7 phage grown in E. coli host derived from BL21
How it was run: as §1

[24] = target: T24, PIK3CA (Homo sapiens, UniProt P42336)
T24 construct: host or cells: E. coli host derived from BL21, infected with T7 phage
How it was run: as §1

[25] = target: T25, PKMYT1 (Homo sapiens, UniProt Q99640)
T25 construct: host or cells: T7 phage in E. coli host derived from BL21
How it was run: as §1

[26] = target: T26, RPS6KA2(Kin.Dom.-1-N-terminal) (Homo sapiens, UniProt Q15349)
T26 construct: RPS6KA2(Kin.Dom.-1-N-terminal); host or cells: E. coli host derived from BL21, T7 phage display
How it was run: as §1

[27] = target: T27, RPS6KA6(Kin.Dom.-1-N-terminal) (Homo sapiens, UniProt Q9UK32)
T27 construct: RPS6KA6(Kin.Dom.-1-N-terminal); host or cells: E. coli host derived from BL21, T7 phage display
How it was run: as §1

[28] = target: T28, TESK1 (Homo sapiens, UniProt Q15569)
T28 construct: host or cells: T7 phage grown in E. coli (BL21-derived)
How it was run: as §1

[29] = target: T29, TRKA (Homo sapiens, UniProt P04629)
T29 construct: host or cells: E. coli host derived from BL21, T7 phage
How it was run: as §1

[30] = target: T30, TTK (Homo sapiens, UniProt P33981)
T30 construct: host or cells: E. coli host derived from BL21, T7 phage
How it was run: as §1

[31] = target: T31, ZAK (Homo sapiens, UniProt Q9NYL2)
T31 construct: host or cells: T7 phage grown in an E. coli host derived from BL21
How it was run: as §1

[32] = target: T32, p38-alpha (Homo sapiens, UniProt Q16539)
T32 construct: host or cells: E. coli host derived from BL21, infected with T7 phage
How it was run: as §1

T17 sequence (P53671 whole entry): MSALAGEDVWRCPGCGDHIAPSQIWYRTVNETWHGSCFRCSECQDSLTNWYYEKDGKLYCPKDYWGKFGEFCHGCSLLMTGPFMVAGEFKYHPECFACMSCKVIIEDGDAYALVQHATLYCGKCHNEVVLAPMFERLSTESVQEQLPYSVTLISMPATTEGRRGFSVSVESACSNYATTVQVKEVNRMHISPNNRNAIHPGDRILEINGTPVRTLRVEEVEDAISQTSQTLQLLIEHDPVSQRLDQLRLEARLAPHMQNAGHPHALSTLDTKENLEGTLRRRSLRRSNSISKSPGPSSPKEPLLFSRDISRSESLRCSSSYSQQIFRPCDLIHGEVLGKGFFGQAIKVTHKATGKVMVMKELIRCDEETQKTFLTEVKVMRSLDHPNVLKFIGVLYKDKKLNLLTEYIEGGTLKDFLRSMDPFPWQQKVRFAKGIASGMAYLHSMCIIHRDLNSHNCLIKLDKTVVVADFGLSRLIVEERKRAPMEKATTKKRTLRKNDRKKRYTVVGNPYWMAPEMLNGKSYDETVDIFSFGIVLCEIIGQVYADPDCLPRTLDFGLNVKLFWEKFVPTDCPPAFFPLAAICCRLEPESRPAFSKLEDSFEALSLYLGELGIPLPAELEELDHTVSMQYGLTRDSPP
T31 sequence (Q9NYL2 whole entry): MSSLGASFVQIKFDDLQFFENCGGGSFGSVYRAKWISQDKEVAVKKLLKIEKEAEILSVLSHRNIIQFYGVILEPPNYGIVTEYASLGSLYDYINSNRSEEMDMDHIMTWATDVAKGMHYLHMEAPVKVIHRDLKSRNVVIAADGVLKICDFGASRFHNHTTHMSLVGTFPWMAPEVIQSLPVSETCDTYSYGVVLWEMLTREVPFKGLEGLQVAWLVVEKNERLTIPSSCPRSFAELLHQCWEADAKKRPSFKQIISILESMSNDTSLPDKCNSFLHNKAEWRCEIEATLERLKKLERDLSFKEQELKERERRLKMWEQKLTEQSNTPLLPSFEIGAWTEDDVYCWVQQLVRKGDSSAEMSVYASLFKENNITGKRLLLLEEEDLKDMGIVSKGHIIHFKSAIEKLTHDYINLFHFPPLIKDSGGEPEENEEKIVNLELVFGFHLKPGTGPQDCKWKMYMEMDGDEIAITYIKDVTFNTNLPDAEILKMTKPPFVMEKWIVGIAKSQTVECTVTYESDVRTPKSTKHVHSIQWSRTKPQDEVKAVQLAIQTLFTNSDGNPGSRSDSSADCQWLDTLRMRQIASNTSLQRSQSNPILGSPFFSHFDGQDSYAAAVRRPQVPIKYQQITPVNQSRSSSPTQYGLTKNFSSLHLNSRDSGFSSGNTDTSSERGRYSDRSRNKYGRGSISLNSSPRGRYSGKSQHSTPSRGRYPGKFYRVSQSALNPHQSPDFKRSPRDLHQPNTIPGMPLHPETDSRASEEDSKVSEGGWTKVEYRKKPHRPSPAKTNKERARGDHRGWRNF
T23 sequence (Q8TD19 whole entry): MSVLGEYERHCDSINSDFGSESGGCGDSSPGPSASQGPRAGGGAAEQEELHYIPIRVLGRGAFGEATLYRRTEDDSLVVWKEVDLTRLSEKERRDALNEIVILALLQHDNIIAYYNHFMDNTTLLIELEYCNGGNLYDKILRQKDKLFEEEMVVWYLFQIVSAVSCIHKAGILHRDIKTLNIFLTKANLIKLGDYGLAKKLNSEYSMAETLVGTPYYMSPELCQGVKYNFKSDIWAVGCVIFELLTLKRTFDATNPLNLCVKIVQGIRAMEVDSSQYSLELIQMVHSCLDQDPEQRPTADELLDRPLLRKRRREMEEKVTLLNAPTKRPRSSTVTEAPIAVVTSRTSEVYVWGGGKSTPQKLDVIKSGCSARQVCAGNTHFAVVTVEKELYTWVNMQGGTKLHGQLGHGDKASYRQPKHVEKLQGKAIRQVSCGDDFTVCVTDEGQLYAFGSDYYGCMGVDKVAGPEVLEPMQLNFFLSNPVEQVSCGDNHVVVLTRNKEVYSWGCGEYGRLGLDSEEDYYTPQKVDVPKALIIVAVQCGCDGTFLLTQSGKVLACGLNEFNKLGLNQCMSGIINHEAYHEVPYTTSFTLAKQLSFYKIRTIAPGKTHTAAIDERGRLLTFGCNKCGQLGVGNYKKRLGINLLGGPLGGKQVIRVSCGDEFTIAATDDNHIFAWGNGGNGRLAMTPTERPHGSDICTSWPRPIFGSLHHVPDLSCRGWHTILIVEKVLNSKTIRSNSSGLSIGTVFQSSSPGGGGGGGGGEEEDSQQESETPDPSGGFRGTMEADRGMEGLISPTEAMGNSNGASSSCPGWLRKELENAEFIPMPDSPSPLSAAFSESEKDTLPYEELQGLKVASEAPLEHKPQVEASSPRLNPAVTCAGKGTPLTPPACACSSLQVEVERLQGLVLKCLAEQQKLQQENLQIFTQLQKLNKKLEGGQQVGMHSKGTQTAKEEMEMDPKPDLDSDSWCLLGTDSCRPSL
T30 sequence (P33981 whole entry): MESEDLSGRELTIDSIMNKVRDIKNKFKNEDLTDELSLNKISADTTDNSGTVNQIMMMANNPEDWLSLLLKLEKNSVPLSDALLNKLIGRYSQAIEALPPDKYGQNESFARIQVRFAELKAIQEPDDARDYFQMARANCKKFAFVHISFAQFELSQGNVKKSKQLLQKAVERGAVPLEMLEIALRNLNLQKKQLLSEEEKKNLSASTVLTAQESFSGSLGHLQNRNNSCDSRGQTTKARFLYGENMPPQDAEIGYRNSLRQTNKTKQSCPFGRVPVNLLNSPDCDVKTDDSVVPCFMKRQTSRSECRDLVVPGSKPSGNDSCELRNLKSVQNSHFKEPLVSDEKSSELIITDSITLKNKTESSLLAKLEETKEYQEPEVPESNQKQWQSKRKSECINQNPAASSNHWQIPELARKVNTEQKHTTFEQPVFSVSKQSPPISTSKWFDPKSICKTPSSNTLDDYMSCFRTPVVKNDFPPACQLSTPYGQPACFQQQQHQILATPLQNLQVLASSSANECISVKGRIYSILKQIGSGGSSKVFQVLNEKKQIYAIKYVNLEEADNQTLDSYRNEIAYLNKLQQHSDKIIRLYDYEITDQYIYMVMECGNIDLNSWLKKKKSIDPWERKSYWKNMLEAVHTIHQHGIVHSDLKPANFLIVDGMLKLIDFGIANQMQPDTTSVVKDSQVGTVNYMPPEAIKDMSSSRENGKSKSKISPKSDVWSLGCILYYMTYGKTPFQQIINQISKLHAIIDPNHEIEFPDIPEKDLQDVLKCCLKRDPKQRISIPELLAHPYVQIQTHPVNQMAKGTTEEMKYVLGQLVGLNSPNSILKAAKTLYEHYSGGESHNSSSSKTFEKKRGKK
T24 sequence (P42336 whole entry): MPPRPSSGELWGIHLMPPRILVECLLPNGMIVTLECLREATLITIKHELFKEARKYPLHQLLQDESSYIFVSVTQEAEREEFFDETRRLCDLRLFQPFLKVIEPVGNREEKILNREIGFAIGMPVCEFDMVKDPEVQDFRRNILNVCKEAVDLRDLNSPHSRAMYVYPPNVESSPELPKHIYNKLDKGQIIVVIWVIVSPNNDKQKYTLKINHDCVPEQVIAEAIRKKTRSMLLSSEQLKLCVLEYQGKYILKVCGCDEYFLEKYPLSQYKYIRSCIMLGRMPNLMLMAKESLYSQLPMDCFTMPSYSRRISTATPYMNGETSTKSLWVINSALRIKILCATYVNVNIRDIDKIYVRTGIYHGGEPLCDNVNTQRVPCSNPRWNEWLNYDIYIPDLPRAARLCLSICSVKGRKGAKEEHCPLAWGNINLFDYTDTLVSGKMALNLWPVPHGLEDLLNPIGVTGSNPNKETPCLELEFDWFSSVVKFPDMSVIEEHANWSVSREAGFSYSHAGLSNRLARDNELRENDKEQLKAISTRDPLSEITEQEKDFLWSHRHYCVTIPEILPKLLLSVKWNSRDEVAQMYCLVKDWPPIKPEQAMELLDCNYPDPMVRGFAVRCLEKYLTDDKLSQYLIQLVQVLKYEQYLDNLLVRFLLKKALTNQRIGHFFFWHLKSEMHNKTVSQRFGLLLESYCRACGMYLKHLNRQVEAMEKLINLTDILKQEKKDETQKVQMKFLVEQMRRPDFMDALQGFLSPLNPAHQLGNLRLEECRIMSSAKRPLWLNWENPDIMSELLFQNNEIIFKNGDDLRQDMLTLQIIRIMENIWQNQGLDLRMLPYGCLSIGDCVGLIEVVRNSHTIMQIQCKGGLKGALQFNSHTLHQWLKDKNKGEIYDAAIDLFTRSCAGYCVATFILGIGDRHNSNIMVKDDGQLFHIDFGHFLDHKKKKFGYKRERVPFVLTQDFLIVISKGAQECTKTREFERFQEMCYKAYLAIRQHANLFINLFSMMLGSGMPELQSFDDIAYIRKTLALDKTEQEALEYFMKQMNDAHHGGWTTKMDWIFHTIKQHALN
T15 sequence (P23458 875-1153 limits assumed): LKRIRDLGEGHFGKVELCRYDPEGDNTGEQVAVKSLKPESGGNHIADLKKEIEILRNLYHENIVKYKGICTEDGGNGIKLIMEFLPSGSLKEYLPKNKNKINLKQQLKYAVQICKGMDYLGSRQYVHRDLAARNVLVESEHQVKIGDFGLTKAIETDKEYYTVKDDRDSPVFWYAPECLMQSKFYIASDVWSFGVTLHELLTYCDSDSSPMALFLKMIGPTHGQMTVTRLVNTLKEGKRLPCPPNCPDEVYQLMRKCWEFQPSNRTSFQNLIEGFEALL
T32 sequence (Q16539 whole entry): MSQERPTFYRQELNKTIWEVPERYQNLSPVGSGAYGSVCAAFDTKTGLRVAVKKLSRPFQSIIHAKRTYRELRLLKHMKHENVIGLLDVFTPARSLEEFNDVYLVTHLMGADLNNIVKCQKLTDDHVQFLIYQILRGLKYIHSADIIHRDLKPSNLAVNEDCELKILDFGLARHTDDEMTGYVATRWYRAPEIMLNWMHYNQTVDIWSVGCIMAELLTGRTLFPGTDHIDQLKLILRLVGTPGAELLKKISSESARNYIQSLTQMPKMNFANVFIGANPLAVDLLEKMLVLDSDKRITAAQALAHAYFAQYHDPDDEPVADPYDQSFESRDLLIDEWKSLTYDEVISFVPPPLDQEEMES

## C#Cc1cccc(Nc2ncnc3cc(OC)c(OCCCN4CCOCC4)cc23)c1 [NRC-2694, N-(3-ethynylphenyl)-7-methoxy-6-[3-(4-morpholinyl)propoxy]-4-quinazolinamine]
[1]
  remaining binding at 10 µM: 38%
[2]
  remaining binding at 10 µM: 34%
[3]
  remaining binding at 10 µM: 10%
[4]
  remaining binding at 10 µM: 73%
[5]
  remaining binding at 10 µM: 33%
[6]
  remaining binding at 10 µM: 65%
[7]
  remaining binding at 10 µM: 63%
[8]
  remaining binding at 10 µM: 94%
[9]
  remaining binding at 10 µM: 5%
[10]
  remaining binding at 10 µM: 69%
[11]
  remaining binding at 10 µM: 51%
[12]
  remaining binding at 10 µM: 3.7%
[13]
  remaining binding at 10 µM: 100%
[14]
  remaining binding at 10 µM: 64%
[15]
  remaining binding at 10 µM: 15%
[16]
  remaining binding at 10 µM: 1.5%
[17]
  remaining binding at 10 µM: 100%
[18]
  remaining binding at 10 µM: 69%
[19]
  remaining binding at 10 µM: 52%
[20]
  remaining binding at 10 µM: 79%
[21]
  remaining binding at 10 µM: 70%
[22]
  remaining binding at 10 µM: 66%
[23]
  remaining binding at 10 µM: 85%
[24]
  remaining binding at 10 µM: 100%
[25]
  remaining binding at 10 µM: 74%
[26]
  remaining binding at 10 µM: 70%
[27]
  remaining binding at 10 µM: 94%
[28]
  remaining binding at 10 µM: 83%
[29]
  remaining binding at 10 µM: 100%
[30]
  remaining binding at 10 µM: 48%
[31]
  remaining binding at 10 µM: 74%
[32]
  remaining binding at 10 µM: 89%
